Patent publication US20080200454A1, “CARBON-LINKED TETRAHYDRO-PYRAZOLO-PYRIDINE MODULATORS OF CATHEPSIN S” (priority 2007, published 2008)

Molecular target: Recombinant human cathepsin S (CatS) (Homo sapiens, UniProt P25774)
Assay: Recombinant human cathepsin S (CatS) inhibition assay, fluorogenic substrate Z-Valine-Valine-Arginine-AMC;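 note: Baculovirus-expressed CatS in pH 5.0 sodium acetate buffer with DTT and NaCl, fluorescence read each minute over 20 min, inhibition derived from rate slope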
Conditions: not given

Sequence of Recombinant human cathepsin S (CatS) (P25774 115-331): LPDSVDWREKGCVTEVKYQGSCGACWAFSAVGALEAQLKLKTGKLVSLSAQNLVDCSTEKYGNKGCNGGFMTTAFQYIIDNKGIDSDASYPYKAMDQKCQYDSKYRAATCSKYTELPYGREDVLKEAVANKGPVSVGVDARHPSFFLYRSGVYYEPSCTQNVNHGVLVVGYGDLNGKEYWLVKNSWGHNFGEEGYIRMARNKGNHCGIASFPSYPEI

Structure (SMILES) | IC50 [nM]
C[C@H]1COCCN1CC(O)Cn1nc(-c2ccc(Cl)c(C#Cc3ccc(CNCc4ccc(Cl)cc4)cc3)c2)c2c1CCN(C(N)=O)C2 (stereo in doubt) [Example 258, 3-(4-Chloro-3-{4-[(4-chloro-benzylamino)-methyl]-phenylethynyl}-phenyl)-1-[(2S)-2-hydroxy-3-((3S)-3-methyl-morpholin-4-yl)-propyl]-1,4,6,7-tetrahydro-pyrazolo[4,3-c]pyridine-5-carboxylic acid amide] | 80
COC(=O)C1CCN(CC(O)Cn2nc(-c3ccc(C(F)(F)F)c(C#Cc4ccc(Cl)cc4)c3)c3c2CCN(S(C)(=O)=O)C3)CC1 (centres unmarked) [Example 117, 1-(3-{3-[3-(4-Chloro-phenylethynyl)-4-trifluoromethyl-phenyl]-5-methanesulfonyl-4,5,6,7-tetrahydro-pyrazolo[4,3-c]pyridin-1-yl}-2-hydroxy-propyl)-piperidine-4-carboxylic acid methyl ester] | 40
CN(C)S(=O)(=O)N1CCc2c(c(-c3ccc(Cl)c(C#Cc4ccc(CNCc5ccc(Cl)cc5)cc4)c3)nn2CCCN2CCOCC2)C1 [Example 153, 3-(4-Chloro-3-{[4-({[(4-chlorophenyl)methyl]amino}methyl)phenyl]ethynyl}phenyl)-N,N-dimethyl-1-(3-morpholin-4-ylpropyl)-1,4,6,7-tetrahydro-5H-pyrazolo[4,3-c]pyridine-5-sulfonamide] | 180
CS(=O)(=O)N1CCc2c(c(-c3ccc(Cl)c(CCCCN4CCCC4)c3)nn2CCCN2CCC(N3CCCC3=O)CC2)C1 [Example 109, 1-[1-(3-{3-[4-Chloro-3-(4-pyrrolidin-1-yl-butyl)-phenyl]-5-methanesulfonyl-4,5,6,7-tetrahydro-pyrazolo[4,3-c]pyridin-1-yl}-propyl)-piperidin-4-yl]-pyrrolidin-2-one] | 2270
C[C@H]1COCCN1CCCn1nc(-c2ccc(Cl)c(C#Cc3ccc4c(c3)CN(C3CC3)CC4)c2)c2c1CCNC2 [Example 481, 7-{[2-Chloro-5-(1-{3-[(3S)-3-methylmorpholin-4-yl]propyl}-4,5,6,7-tetrahydro-1H-pyrazolo[4,3-c]pyridin-3-yl)phenyl]ethynyl}-2-cyclopropyl-1,2,3,4-tetrahydroisoquinoline] | 3520
CNC(=O)N1CCc2c(c(-c3ccc(Cl)c(C#Cc4ccc(CNCc5ccc(Cl)cc5)cc4)c3)nn2CCCN2CCOCC2)C1 [Example 155, 3-(4-Chloro-3-{[4-({[(4-chlorophenyl)methyl]amino}methyl)phenyl]ethynyl}phenyl)-N-methyl-1-(3-morpholin-4-ylpropyl)-1,4,6,7-tetrahydro-5H-pyrazolo[4,3-c]pyridine-5-carboxamide] | 790
CS(=O)(=O)N1CCc2c(c(-c3ccc(C(F)(F)F)c(CCc4ccc(Cl)cc4)c3)nn2CC(O)CN2CCOCC2)C1 (centres unmarked) [Example 147, 1-(3-{3-[2-(4-Chloro-phenyl)-ethyl]-4-trifluoromethyl-phenyl}-5-methanesulfonyl-4,5,6,7-tetrahydro-pyrazolo[4,3-c]pyridin-1-yl)-3-morpholin-4-yl-propan-2-ol] | 410
CS(=O)(=O)N1CCc2c(c(-c3ccc(Cl)c(C#Cc4ccc(CNCc5ccc(Cl)cc5)cc4)c3)nn2CCCN2CCOCC2)C1 [Example 76, (4-Chloro-benzyl)-(4-{2-chloro-5-[5-methanesulfonyl-1-(3-morpholin-4-yl-propyl)-4,5,6,7-tetrahydro-1H-pyrazolo[4,3-c]pyridin-3-yl]-phenylethynyl}-benzyl)-amine] | 240
CN(Cc1ccccc1)Cc1cccc(CCc2cc(-c3nn(CCCN4CCOCC4)c4c3CN(S(C)(=O)=O)CC4)ccc2Cl)c1 [Example 530, 1-[3-(2-{2-Chloro-5-[5-(methylsulfonyl)-1-(3-morpholin-4-ylpropyl)-4,5,6,7-tetrahydro-1H-pyrazolo[4,3-c]pyridin-3-yl]phenyl}ethyl)phenyl]-N-methyl-N-(phenylmethyl)methanamine] | 1330
CC(=O)NCc1ccc(C#Cc2cc(-c3nn(CCCN4CCOCC4)c4c3CN(S(C)(=O)=O)CC4)ccc2Cl)cc1 [Example 72, N-(4-{2-Chloro-5-[5-methanesulfonyl-1-(3-morpholin-4-yl-propyl)-4,5,6,7-tetrahydro-1H-pyrazolo[4,3-c]pyridin-3-yl]-phenylethynyl}-benzyl)-acetamide] | 490
CS(=O)(=O)N1CCc2c(c(-c3ccc(Cl)c(C#Cc4cnc5c(c4)CNCC5)c3)nn2CCCN2CCOCC2)C1 [Example 394, 3-({2-Chloro-5-[5-(methylsulfonyl)-1-(3-morpholin-4-ylpropyl)-4,5,6,7-tetrahydro-1H-pyrazolo[4,3-c]pyridin-3-yl]phenyl}ethynyl)-5,6,7,8-tetrahydro-1,6-naphthyridine] | 3810
COC(=O)CNCc1cc(C#Cc2cc(-c3nn(CCCN4CCOCC4C)c4c3CN(C(N)=O)CC4)ccc2Cl)ccc1Cl (stereo in doubt) [Example 220, Methyl N-{[5-({5-[5-(aminocarbonyl)-1-{3-[(3S)-3-methylmorpholin-4-yl]propyl}-4,5,6,7-tetrahydro-1H-pyrazolo[4,3-c]pyridin-3-yl]-2-chlorophenyl}ethynyl)-2-chlorophenyl]methyl}glycinate] | 30
C[C@H]1COCCN1C[C@H](O)Cn1nc(-c2ccc(Cl)c(C#Cc3ccc(CNCc4ccc(Cl)cc4)cc3)c2)c2c1CCN(C(N)=O)C2 [Example 257, 3-(4-Chloro-3-{4-[(4-chloro-benzylamino)-methyl]-phenylethynyl}-phenyl)-1-[(2S)-2-hydroxy-3-((3S)-3-methyl-morpholin-4-yl)-propyl]-1,4,6,7-tetrahydro-pyrazolo[4,3-c]pyridine-5-carboxylic acid amide] | 70

Same assay, conditions: CatS IC50

Structure (SMILES) | IC50 [nM]
CS(=O)(=O)N1CCc2c(c(-c3ccc(Cl)c(C#Cc4ccc(Cl)c(CNC5CC5)c4)c3)nn2CCCN2CCCCC2)C1 [Example 603, N-[2-Chloro-5-({2-chloro-5-[5-(methylsulfonyl)-1-(3-piperidin-1-ylpropyl)-4,5,6,7-tetrahydro-1H-pyrazolo[4,3-c]pyridin-3-yl]phenyl}ethynyl)benzyl]cyclopropanamine] | 50
NC(=O)N1CCc2c(c(-c3ccc(Cl)c(C#Cc4ccc(Cl)c(CNC5CC5)c4)c3)nn2CCCN2CCCCC2)C1 [Example 596, 3-[4-Chloro-3-({4-chloro-3-[(cyclopropylamino)methyl]phenyl}ethynyl)phenyl]-1-(3-piperidin-1-ylpropyl)-1,4,6,7-tetrahydro-5H-pyrazolo[4,3-c]pyridine-5-carboxamide] | 30
CC(=O)NC1CCN(CCCn2nc(-c3ccc(Cl)c(C#Cc4ccc5c(c4)CNCC5)c3)c3c2CCN(S(C)(=O)=O)C3)CC1 [Example 227, N-[1-(3-{3-[4-Chloro-3-(1,2,3,4-tetrahydroisoquinolin-7-ylethynyl)phenyl]-5-(methylsulfonyl)-4,5,6,7-tetrahydro-1H-pyrazolo[4,3-c]pyridin-1-yl}propyl)piperidin-4-yl]acetamide] | 40
CS(=O)(=O)N1CCc2c(c(-c3ccc(Cl)c(C#Cc4ccc(CNCc5ccc(Cl)cc5)cc4)c3)nn2CCCN2CCC(N3CCCC3=O)CC2)C1 [Example 328, 1-(1-{3-[3-(4-Chloro-3-{[4-({[(4-chlorophenyl)methyl]amino}methyl)phenyl]ethynyl}phenyl)-5-(methylsulfonyl)-4,5,6,7-tetrahydro-1H-pyrazolo[4,3-c]pyridin-1-yl]propyl}piperidin-4-yl)pyrrolidin-2-one] | 20
